Patent publication US5686065A, “Topical siloxane sunscreen compositions having enhanced performance and safety” (Special Advanced Biomaterials, Inc., priority 1991, dated 1997)
Where two headings read alike, the source gives them in different places.

Key:
[1] = tested on: microbes on skin; settings: general statement, no test given; cited from earlier work
[2] = Experimental: Ten microliters of each of (a), (b), (c), (d), 2-ethyl-1,3-hexanediol (EHD), N,N-diethyl-m-toluamide (DT), or N,N-diethoxy-m-toluamide (DOT) were applied to separate 7 cm^2 patches of greentree python snake skin once daily for 3 days. At the end of the application period, the patches were washed five times each day for three days with 20 μl of 50/50 ethanol/water using a 3 cm diameter cylinder to enable collection of the washings. The amount of insect repellent washed off was quantified using reverse phase HPLC, C^14 radiocounting or AT/FTIR. The percentage remaining bound after 5, 10, and 15 washes was designated as 100×(amount applied-amount washed off)/(amount applied) and was averaged for 5 samples.
[3] = Humectant remaining bound to snake skin after washing; design: species or system greentree python snake
Experimental: In the case of (b), 10 μl of ETS was also applied immediately after solution (b).

[4] = tested on: S. aureus; assay: Zone of inhibition on agar of treated snake skin patches; format: cell-based; settings: 24 hours
Experimental: The patches of snake skin were assayed for antimicrobial activity using 3 methods: (1) zone of antimicrobial activity on agar due to diffusion, (2) quantitation of microbial growth in solution mixing with patch, and (3) quantitation of microbial growth on human skin. The first method was a standard zone of inhibition study in which the bacteria was streaked onto an agar plate, the disk containing the test material was placed on the plate, and then the bacteria were allowed to grow for 24 hours.
(§1) Each result was averaged for samples.

[5] = by infants; general statement; cited from earlier work
[6] = tested on: normal skin bacteria (results for S. aureus reported); assay: Quantitation of microbial growth on human skin (expanded flora); format: in vivo
Experimental: The third test involved growing normal skin bacteria by covering the skin with an occlusive dressing such as Saran Wrap (this is referred to as expanding the flora). Prior to expanding the flora, the skin test sites were treated with the test or control solutions as described above. The flora was then expanded for 24 hours, followed by quantitating the bacteria growth. This was done by washing an area of skin with liquid growth medium and spreading the washing on an agar plate. After the bacteria grew the number colonies were counted (Table 8).
as §1

[7] = tested on: S. aureus; assay: Quantitation of microbial growth in solution mixing with treated snake skin patch; format: cell-based; settings: for Microbe Growth/Solution after 5 washes / Microbe Growth/Solution after 15 washes / Microbe Growth/Solution after 10 washes: S. aureus, treated snake skin, 24 hours
Experimental: In the second test, tubes containing liquid growth medium were inoculated with bacteria, and then the test disk was placed in the tube. The bacteria was allowed to grow for 24 hours and then the number of bacteria per ml was quantified either by light reflectance or by removing a small volume and streaking on an agar plate. The latter method was followed by allowing the bacteria to grow and then counting the colonies (Table 7).
as §1

[8] = Modified Draise test: erythema by salicylic acid on treated rabbit skin; format: in vivo; settings: in words, from Table 10
Experimental: The skin test on rabbits was essentially a modified Draise test for skin in which unabraded skin was studied on partially occluded sites. The skin irritation study was started following skin treatment by one of the test compounds above. In this test, after the compound was applied to the skin, a known skin irritant, 10 μl of 5% salicylic acid in a 50/50 by volume mixture of ethanol/water, was applied once a day for 3 days. The skin was rated for erythema using the scale of 0--no erythema to 4--severe erythema.

[9] = design: species or system greentree python snake
Experimental: Ten microliters (a), (b), (c), (d), AT or ethanol/cyclomethicone vehicle was applied separately to a 7 cm^2 patch of greentree python snake skin once daily for 3 days or to a 7 cm^2 patch of shaved rabbit skin. At the end of the application period, the patches were washed five times each day for three days with 20 μl of 50/50 ethanol/water using a 3 cm diameter cylinder to enable collection of the washings. The amount of skin protectant washed off was quantitated using reverse phase HPLC, C^14 radiocounting or AT/FTIR. The percentage remaining bound after 5, 10, and 15 washes was designated as 100×(amount applied-amount washed off)/(amount applied) and was averaged for the 5 samples.

[10] = snake skin, insect repellent, 50/50 ethanol/water washes
[11] = human skin, flora expanded 24 hours, S. aureus

In the case of `[H]/N=C(\N/C(=N/[H])NCCCCCCNC(=N)NC(=N)Nc1ccc(Cl)cc1)Nc1ccc(Cl)cc1` [Chlorhexidene, Chlorhexidine], the “antimicrobial effectiveness on skin” value [1] is listed as “very effective” and the “toxicity / side effects of topical antimicrobial” value [1] is listed as “causes severe skin drying”.
For `CCON(OCC)C(=O)c1cccc(C)c1` [DOT, N,N-diethoxy-m-toluamide], the “% bound after 5 washes” value [2] was 6%, the “% bound after 10 washes” value [2] was 1% and the “% bound after 15 washes” value [2] was 1%.
In the case of `CCN(CC)C(=O)c1cccc(C)c1` [DT, N,N-diethyl-m-toluamide], the “% bound after 5 washes” value [2, 10] is reported as 10%, the “% bound after 10 washes” value [2, 10] is reported as 5% and the “% bound after 15 washes” value [2, 10] is reported as 2%.
For `CCCC(O)C(CC)CO` (centres unmarked) [EHD, 2-ethyl-1,3-hexanediol], the “% bound after 5 washes” value [2] was 7%, the “% bound after 10 washes” value [2] was 2% and the “% bound after 15 washes” value [2] was 2%.
In the case of `OCC(O)CO` [GL, Glycerol], the “% bound after 5 washes” value [3] is reported as 1%, the “% bound after 10 washes” value [3] is reported as 0% and the “% bound after 15 washes” value [3] is reported as 0%.
With `Oc1c(Cl)cc(Cl)c(Cl)c1Cc1c(O)c(Cl)cc(Cl)c1Cl` [HCP, Hexachlorophene] the “Zone of Inhibition after 5 washes” value [4] was 18 mm, the “Zone of Inhibition after 10 washes” value [4] was 0 mm and the “Zone of Inhibition after 15 washes” value [4] was 0 mm. The absorption [5] was “rapidly absorbed by infants”, the “toxicity / side effects of topical antimicrobial” value [1] was “highly toxic” and the “Microbe Growth/on Skin after 0 washes” value [6, 11] was 0 CFU. For the same molecule, the “Microbe Growth/on Skin after 5 washes” value [6, 11] was 10^2 CFU, the “Microbe Growth/on Skin after 15 washes” value [6, 11] was 10^5 CFU and the “Microbe Growth/Solution after 5 washes” value [7] was 0 CFU. The “Microbe Growth/Solution after 15 washes” value [7] was 10^3 CFU.
For `O=C(O)CC(O)C(=O)O` (centres unmarked) [MA, Malic acid], the “Zone of Inhibition after 5 washes” value [4] was 15 mm, the “Zone of Inhibition after 10 washes” value [4] was 0 mm and the “Zone of Inhibition after 15 washes” value [4] was 0 mm. For the same molecule, the “Microbe Growth/on Skin after 5 washes” value [6, 11] was 10^5 CFU, the “Microbe Growth/on Skin after 15 washes” value [6, 11] was 10^5 CFU and the “Microbe Growth/Solution after 5 washes” value [7] was 0 CFU. For the same molecule, the “Microbe Growth/Solution after 10 washes” value [7] was 10^2 CFU and the “Microbe Growth/Solution after 15 washes” value [7] was 10^3 CFU.
In the case of `[O-][n+]1ccccc1S` [PYR, Pyrithione], the “Zone of Inhibition after 5 washes” value [4] is reported as 10 mm, the “Zone of Inhibition after 10 washes” value [4] is reported as 0 mm and the “Zone of Inhibition after 15 washes” value [4] is reported as 0 mm. The “Microbe Growth/on Skin after 5 washes” value [6, 11] was 10^4 CFU, the “Microbe Growth/on Skin after 15 washes” value [6, 11] was 10^5 CFU and the “Microbe Growth/Solution after 5 washes” value [7] was 0 CFU. The “Microbe Growth/Solution after 10 washes” value [7] was 10^2 CFU and the “Microbe Growth/Solution after 15 washes” value [7] was 10^3 CFU.
For `NC(=O)NC1NC(=O)NC1=O` (centres unmarked) [allantoin, Allantoin], the “protection from skin erythema by salicylic acid” value [8] was “does provide some protection from skin erythema by salicylic acid, this protection is lost if the skin is washed” and the “adherence to / retention on skin” value [9] was “enhanced when applied with a polymerizing siloxane”.
For `CCO[Si](CCCN)(OCC)OCC` [aminofunctional silane coupling agent, Aminopropyltriethoxysilane], the “antibacterial activity on human skin” value ([6]; in words, from Table 8) was “inhibitory activity on bacterial growth on human skin”, the “microbial inhibitory activity on the skin” value ([6]; in words, no data at the place) was “substantial microbial inhibitory activity on the skin” and the microbiocidal activity ([7]; in words, from Table 7) was “not bactericidal”.
For `O=C(Nc1ccc(Cl)cc1)Nc1ccc(Cl)c(Cl)c1` [trichlorocarban], the “antimicrobial effectiveness on skin” value [1] is listed as “relatively ineffective”.
In the case of `Oc1cc(Cl)ccc1Oc1ccc(Cl)cc1Cl` [triclosan, Triclosan], the “antimicrobial effectiveness on skin” value [1] is given as “relatively ineffective”.
In the case of Hyaluronic acid [HA], the “% bound after 5 washes” value [3] is reported as 5%, the “% bound after 10 washes” value [3] is reported as 1% and the “% bound after 15 washes” value [3] is reported as 0%.
In the case of “allantion-mono(triethoxy)siloxy ester [Example 6 (d)]”, the “% bound after 5 washes” value [9] is reported as 47%, the “% bound after 10 washes” value [9] is reported as 36% and the “% bound after 15 washes” value [9] is reported as 21%.
